Reference: paper PMC3381515 (Immunity, 2011)

Test system: TCR and CD8 on F5 T cells
Assay: Micropipette adhesion frequency assay, F5 T cells vs pMHC-coated RBCs
Format: binding, mouse
Conditions: 32 NP68:H-2D^b/μm^2, BAPTA-AM 50 μM, PD98059 50 μM

## CC(=O)OCOC(=O)CN(CC(=O)OCOC(C)=O)c1ccccc1OCCOc1ccccc1N(CC(=O)OCOC(C)=O)CC(=O)OCOC(C)=O [BAPTA-AM]
  effect on two-stage kinetics / upregulated adhesion: two-stage kinetics were unaffected
